Activity calls are given as the source filed them.
Assays:
Assay type in all cases: nucleic-acid assay
Nucleic Acid [1] = assay: Binding affinity to DNA d-(CGATCG)2 by NMR study
Nucleic Acid [2] = assay: Binding affinity to DNA d-(CGATCG)2 at drug to DNA ratio of 2:1 by time resolved fluorescence measurements
Nucleic Acid [3] = assay: Binding affinity to DNA d-(CGATCG)2 at drug to DNA ratio of 2:1 by 2D NOESY experiment
Nucleic Acid [4] = assay: Binding affinity to DNA d-(CGATCG)2 assessed as rate of diffusion by diffusion ordered spectroscopy study

Measured: Activity

COc1cccc2c1C(=O)c1c(O)c3c(c(O)c1C2=O)C[C@@](O)(C(=O)CO)C[C@@H]3O[C@H]1C[C@H](N)[C@@H](O)[C@H](C)O1
active: all assays above
